Square brackets hold non-standard residues; d marks the D form. Peptide text beside a SMILES is read from it. dLac(3-vinyl) = C=CC[C@@H](O)C(=O)O; NMeV = CN[C@H](C(=O)O)C(C)C; NMeA = CN[C@@H](C)C(=O)O; βAla = NCCC(=O)O
How the values were obtained:
[1] = biological target: T1, BmCRT (calreticulin) (Bombyx mori, UniProt Q7Z1E6); assay: SPR (Biacore 8K), multi-cycle kinetics; type: binding
T1 construct: gene crt
T1 sequence (Q7Z1E6 20-398): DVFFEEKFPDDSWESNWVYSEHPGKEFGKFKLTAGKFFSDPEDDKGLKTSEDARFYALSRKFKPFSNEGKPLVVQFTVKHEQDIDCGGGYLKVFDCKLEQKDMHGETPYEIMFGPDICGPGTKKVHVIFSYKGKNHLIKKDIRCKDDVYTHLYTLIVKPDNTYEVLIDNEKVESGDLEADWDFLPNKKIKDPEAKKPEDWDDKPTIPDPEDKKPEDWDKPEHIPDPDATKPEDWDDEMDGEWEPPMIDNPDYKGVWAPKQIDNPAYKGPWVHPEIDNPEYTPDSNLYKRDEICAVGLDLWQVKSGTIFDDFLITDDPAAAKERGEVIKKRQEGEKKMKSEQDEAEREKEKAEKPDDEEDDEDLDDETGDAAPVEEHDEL

[2] = biological target: BmPDIA5 (protein disulfide isomerase A5); assay: SPR (Biacore 8K), multi-cycle kinetics; type: binding, Bombyx mori; settings: 1 × PBSP, 5% DMSO; DA 15.6-250 µmol/L

Question: Which Kd [1] does the source give for `C=CC[C@H]1OC(=O)CCNC(=O)[C@H](C)N(C)C(=O)[C@H](C(C)C)N(C)C(=O)[C@H]([C@@H](C)CC)NC(=O)[C@@H]2CCCN2C1=O` [DA, Destruxin A] (cyclo([dLac(3-vinyl)]PI[NMeV][NMeA][βAla])) here?
Answer: The Kd was 198 µM.

Question: And the Kd [2]?
Answer: The Kd was 92.6 µM.

— paper PMC9698323, “Interaction of Destruxin A with Three Silkworm Proteins: BmCRT, BmDPP3, and BmPDIA5” (Molecules, 2022)
